Counter-ions that a name gives are not always drawn. Like-named read-outs stand apart in the source and are kept apart here.
Test: Solubility of pamoate salt, HPLC determination of concentration in supernatant
Format: physicochemical
Experimental: The solubility of pamoate salt of Example 1 was determined by mixing the peptide in water or PBS, followed by HPLC determination of the concentration in the supernatant, and the results are shown in Table 4B.

## CC(=O)N[C@@H](CCCNC(=N)N)C(=O)N[C@H]1CSSC[C@@H](C(N)=O)NC(=O)[C@H](Cc2c[nH]c3ccccc23)NC(=O)[C@H](CCCNC(=N)N)NC(=O)[C@@H](Cc2ccccc2)NC(=O)[C@H](Cc2c[nH]cn2)NC(=O)[C@@H](C)NC1=O [Pamoate salt of Example 1 with Zn]
PBS, pH 7.4, read-out: Solubility in PBS, pH 7.4
  solubility: 120 µg/mL
Water, pH 7.0, read-out: Solubility in Water, pH 7.0
  solubility: 50 µg/mL
